Measurements from PubChem BioAssay (NCI).
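Protocol summary: plate cells (96-well), add compound at 5 concentrations, incubate 48 h, interpolate endpoints linearly. GI50 marks 50% less growth. TGI: total growth inhibition.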

Key:
Test in all cases: NCI-60 cell line screen, 48 h
[1] = system: 786-0 renal
[2] = system: A498 renal
[3] = system: A549 NSCLC
[4] = system: ACHN renal
[5] = system: BT-549 breast
[6] = system: CAKI-1 renal
[7] = system: CCRF-CEM leukemia
[8] = system: COLO 205 colon
[9] = system: DU-145 prostate
[10] = system: EKVX NSCLC
[11] = system: HCC-2998 colon
[12] = system: HCT-116 colon
[13] = system: HCT-15 colon
[14] = system: HOP-62 NSCLC
[15] = system: HOP-92 NSCLC
[16] = system: HS 578T breast
[17] = system: HT29 colon
[18] = system: IGROV1 ovarian
[19] = system: K-562 leukemia
[20] = system: KM12 colon
[21] = system: LOX IMVI melanoma
[22] = system: M14 melanoma
[23] = system: MALME-3M melanoma
[24] = system: MCF7 breast
[25] = system: MDA-MB-231 breast
[26] = system: MDA-MB-435
[27] = system: MOLT-4 leukemia
[28] = system: NCI-H226 lung
[29] = system: NCI-H23 lung
[30] = system: NCI-H460 lung
[31] = system: NCI-H522 lung
[32] = system: NCI/ADR-RES ovarian
[33] = system: OVCAR-3 ovarian
[34] = system: OVCAR-4 ovarian
[35] = system: OVCAR-5 ovarian
[36] = system: OVCAR-8 ovarian
[37] = system: PC-3 prostate
[38] = system: RPMI-8226 leukemia
[39] = system: SF-268 CNS
[40] = system: SF-295 CNS
[41] = system: SF-539 CNS
[42] = system: SK-MEL-2 melanoma
[43] = system: SK-MEL-28 melanoma
[44] = system: SK-MEL-5 melanoma
[45] = system: SK-OV-3 ovarian
[46] = system: SN12C renal
[47] = system: SNB-19 CNS
[48] = system: SNB-75 CNS
[49] = system: SW-620 colon
[50] = system: T-47D breast
[51] = system: TK-10 renal
[52] = system: U251 CNS
[53] = system: UACC-257 melanoma
[54] = system: UACC-62 melanoma
[55] = system: UO-31 renal
[56] = system: RXF 393 renal

Cc1ccc2c(c1)-c1c(C#N)c(N)nc(-c3ccccc3)c1CCS2(=O)=O
TGI [1]: > 100 µM
TGI [2]: > 80.2 µM
TGI [3]: > 100 µM
TGI [4]: > 100 µM
TGI [5]: > 43.4 µM
TGI [6]: > 100 µM
TGI [7]: > 100 µM
TGI [8]: > 56.3 µM
TGI [9]: > 38.9 µM
TGI [10]: > 100 µM
TGI [11]: > 100 µM
TGI [12]: > 100 µM
TGI [13]: > 100 µM
TGI [14]: > 100 µM
TGI [15]: > 100 µM
TGI [16]: > 47.6 µM
TGI [17]: > 35 µM
TGI [18]: > 51.1 µM
TGI [19]: 11.7 µM
TGI [20]: > 100 µM
TGI [21]: > 100 µM
TGI [22]: > 100 µM
TGI [23]: > 100 µM
TGI [24]: > 100 µM
TGI [25]: > 100 µM
TGI [26]: > 36.5 µM
TGI [27]: > 100 µM
TGI [28]: > 30.2 µM
TGI [29]: > 62.7 µM
TGI [30]: > 100 µM
TGI [31]: 4.58 µM
TGI [32]: > 46.5 µM
TGI [33]: > 100 µM
TGI [34]: > 100 µM
TGI [35]: > 100 µM
TGI [36]: > 95.5 µM
TGI [37]: > 100 µM
TGI [38]: 32.9 µM
TGI [39]: > 100 µM
TGI [40]: > 100 µM
TGI [41]: > 100 µM
TGI [42]: > 100 µM
TGI [43]: > 100 µM
TGI [44]: > 24 µM
TGI [45]: 46 µM
TGI [46]: > 100 µM
TGI [47]: > 46.9 µM
TGI [48]: 59.2 µM
TGI [49]: > 100 µM
TGI [50]: > 100 µM
TGI [51]: > 100 µM
TGI [52]: > 90.7 µM
TGI [53]: > 100 µM
TGI [54]: > 100 µM
TGI [55]: 97 µM

CC(C)C[C@H](NC(=O)[C@@H](O)[C@H](N)Cc1ccc([N+](=O)[O-])cc1)C(=O)O
GI50 [1]: > 25 µM
TGI [1]: > 25 µM
GI50 [3]: > 25 µM
TGI [3]: > 25 µM
GI50 [4]: > 25 µM
TGI [4]: > 25 µM
GI50 [5]: > 25 µM
TGI [5]: > 25 µM
GI50 [6]: > 25 µM
TGI [6]: > 25 µM
GI50 [8]: > 25 µM
TGI [8]: > 25 µM
GI50 [9]: > 25 µM
TGI [9]: > 25 µM
GI50 [10]: > 25 µM
TGI [10]: > 25 µM
GI50 [11]: > 25 µM
TGI [11]: > 25 µM
GI50 [12]: > 25 µM
TGI [12]: > 25 µM
GI50 [13]: > 25 µM
TGI [13]: > 25 µM
GI50 [14]: > 25 µM
TGI [14]: > 25 µM
GI50 [15]: > 25 µM
TGI [15]: > 25 µM
GI50 [16]: > 25 µM
TGI [16]: > 25 µM
GI50 [17]: > 25 µM
TGI [17]: > 25 µM
GI50 [18]: > 25 µM
TGI [18]: > 25 µM
GI50 [19]: > 25 µM
TGI [19]: > 25 µM
GI50 [20]: > 25 µM
TGI [20]: > 25 µM
GI50 [21]: > 25 µM
TGI [21]: > 25 µM
GI50 [22]: > 25 µM
TGI [22]: > 25 µM
GI50 [23]: > 25 µM
TGI [23]: > 25 µM
GI50 [24]: > 25 µM
TGI [24]: > 25 µM
GI50 [25]: > 25 µM
TGI [25]: > 25 µM
GI50 [26]: > 25 µM
TGI [26]: > 25 µM
GI50 [28]: > 25 µM
TGI [28]: > 25 µM
GI50 [29]: > 25 µM
TGI [29]: > 25 µM
GI50 [30]: > 25 µM
TGI [30]: > 25 µM
GI50 [31]: > 25 µM
TGI [31]: > 25 µM
GI50 [32]: > 25 µM
TGI [32]: > 25 µM
GI50 [33]: 0.0025 µM
TGI [33]: > 25 µM
GI50 [34]: > 25 µM
TGI [34]: > 25 µM
GI50 [35]: > 25 µM
TGI [35]: > 25 µM
GI50 [36]: > 25 µM
TGI [36]: > 25 µM
GI50 [37]: > 25 µM
TGI [37]: > 25 µM
GI50 [56]: 19.2 µM
TGI [56]: > 25 µM
GI50 [39]: > 25 µM
TGI [39]: > 25 µM
GI50 [40]: > 25 µM
TGI [40]: > 25 µM
GI50 [41]: > 25 µM
TGI [41]: > 25 µM
GI50 [42]: > 25 µM
TGI [42]: > 25 µM
GI50 [43]: > 25 µM
TGI [43]: > 25 µM
GI50 [44]: > 25 µM
TGI [44]: > 25 µM
GI50 [45]: > 25 µM
TGI [45]: > 25 µM
GI50 [47]: > 25 µM
TGI [47]: > 25 µM
GI50 [48]: > 25 µM
TGI [48]: > 25 µM
GI50 [49]: > 25 µM
TGI [49]: > 25 µM
GI50 [50]: > 25 µM
TGI [50]: > 25 µM
GI50 [51]: > 25 µM
TGI [51]: > 25 µM
GI50 [52]: > 25 µM
TGI [52]: > 25 µM
GI50 [53]: > 25 µM
TGI [53]: > 25 µM
GI50 [54]: > 25 µM
TGI [54]: > 25 µM
GI50 [55]: > 25 µM
TGI [55]: > 25 µM
